The source of these data is paper PMC9176665, “Legumain/pH dual-responsive lytic peptide–paclitaxel conjugate for synergistic cancer therapy” (Drug Delivery, 2022).

≈ marks a conversion by molar mass, not a printed value.

What all share (type): cell-based
The test system of one experiment is 4T1 cells. Kind of experiment: MTT cytotoxicity assay. As to conditions: Mus musculus, 72 h, PTX concentration, n = 5. The protocol: (§1) MCF-7 cells, HCT116 cells, and 4T1 cells were seeded in 96-well plates at a density of 3 × 10^3/well. After 12 h, cancer cells were incubated with free PTX and PPP micelles with a PTX concentration from 0.001 µg/mL to 10 µg/mL in 200 µL culture mediums for 72 h. One hundred microliters of culture medium containing 10 µL MTT (5 mg/mL) was added to each well for another 4 h in the dark. The absorbance was measured at 570 nm by a microplate reader (Flexstation 3, Molecular Devices LLC, Sunnyvale, CA). Comparing treated wells with controlled wells, the cell viability was analyzed as mean ± SD (n = 5). In order to confirm the enzyme responsiveness of AAN between the mPEG and PTP-7, MTT assay was used to indirectly observe the cytotoxicity of PTP-7 cleaved by legumain. One microgram of recombinant mouse legumain (Abcam, Cambridge, UK) was activated in a buffer solution (pH 4.5) which contains 50 mM critic acid, 1 mM DTT, and 1 mM EDTA (Zhou et al., [2017]). Then, PP was dissolved in the legumain solution and incubated at 37 °C for 12 h. Next, culture medium containing 0.1–100 µg/mL of free PTP-7 or legumain treated mPEG-PTP-7 was added to cancer cells. After incubation for 24 h, the cell viability was calculated as above.
(§2) The cell lines were purchased from China Center for Type Culture Collection (Wuhan, China). MCF-7 and HCT116 cells were cultivated in DMEM and 1640 with 10% FBS and 1% PS. 4T1 cells were cultivated in 1640 containing 1% glutaMAX^TM-1, 1% MEM NEAA, 1% sodium pyruvate, 10% FBS and 1% PS. All cell lines were incubated in incubator at 37℃ and 5% CO2. All qualified mice were purchased from Hangzhou Medical College and fostered in laboratory animals and all animal experiments followed the ethical requirements set by the ethics committee of Zhejiang University of Technology (20210511034).

The next experiment relates to HCT116 cells. Kind of experiment: MTT cytotoxicity assay. As to conditions: Homo sapiens, HCT-116, 72 h, PTX concentration, n = 5. The protocol:
as §1, §2

A further experiment relates to MCF-7 cells. Kind of experiment: MTT cytotoxicity assay. As to conditions: Homo sapiens, MCF7, 72 h, PTX concentration, n = 5. The protocol: as §1, §2
The next experiment relates to MCF-7 tumor spheroid. Kind of experiment: Inhibition of tumor spheroid growth. As to conditions: MCF-7 spheroids, equivalent 0.1 µg/mL PTX, 9th day. As for the experimental part:
(§3) MCF-7 cells and HCT116 cells were dispersed in culture medium containing 10% methylcellulose (0.24%, w/v) at a density of around 1 × 10^5 cells/mL. Twenty microliters of the above medium was equably dropped on the lid of a […] cell culture dish and incubated at 37 °C for 24 h. When the tumor spheroids were formed, they were removed to 96-well plates which were pre-coated with agarose. After incubation for 72 h, MCF-7 tumor spheroid was treated with PPP and free PTX at equivalent 0.1 µg/mL PTX and HCT116 tumor spheroid was treated with PPP and free PTX at equivalent 0.05 µg/mL PTX. […] Measured with maximum diameter (dmax) and minimum diameter (dmin), the tumor spheroid volume was calculated by the following equation: V=[…], and the negative control tumor spheroids grew up in culture medium.

A further experiment concerns HCT116 tumor spheroid. Kind of experiment: Inhibition of tumor spheroid growth. As to conditions: equivalent 0.05 µg/mL PTX, 9th day. As for the experimental part:
as §3

As for `CC(=O)O[C@H]1C(=O)[C@@]2(C)[C@H]([C@H](OC(=O)c3ccccc3)[C@]3(O)C[C@H](OC(=O)[C@H](O)[C@@H](NC(=O)c4ccccc4)c4ccccc4)C(C)=C1C3(C)C)[C@]1(OC(C)=O)CO[C@@H]1C[C@@H]2O` [PTX, Paclitaxel], the values for the IC50 with 4T1 cells, in the experiment with HCT116 cells and in the experiment with MCF-7 cells were 0.01 µg/mL (≈ 0.0117 µM), 0.006 µg/mL (≈ 0.00703 µM) and 0.028 µg/mL (≈ 0.0328 µM), respectively. The results for the “inhibition of spheroids (volume)” value in the experiment with MCF-7 tumor spheroid and in the experiment with HCT116 tumor spheroid were 47.88% and 20.51%, respectively.

The IC50 is the concentration that gives 50% inhibition. A low value points to higher potency.
